In the supplement of paper PMC11208160:

Test: recombinant UMI read abundance after kanamycin selection (control-corrected) (log10(CPM+1)); higher = more efficient recombination; extreme values may be limits of the assay; sequences stand for … in AGTGCAGAGAAAATCGGCCAGTTTTCTCTGCCTGCAGTCCGCATGCCGTGGGACCCCTTGGGTTCTAACCTGTTGCCTAGATTTATGCAGCGGACTGCCTTTCTCCCAAAGTGATAAACCGG…AGGTTGGTTTCACT; site = the 11-nt donor
Summary of the method: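 Reported values are log10(CPM+1) from a pooled Escherichia coli screen of donor and donor-binding-loop pairs for the IS621 bridge recombinase. Selection used IPTG (0.07 mM) plus kanamycin, against unselected plating, each in two replicates. Recombinant UMIs were amplified across the donor–target junction, sequenced, converted to CPM, averaged over replicates and scaled by control-derived factors.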
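Also: IS621 bridge recombinase in Escherichia coli cells against a fixed T5 target plasmid.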

**Q.** With “GTTCCAGCATGGACCGGTTTTCCCGGTAATCCGTATTTGCA (site GTTCTAGCTTG)” as the sequence, how does the “recombinant UMI read abundance (log10)” value read?
**A.** 0

**Q.** Which “recombinant UMI read abundance (log10)” value does the source give for “GTTCCAGCATGGACCGGTTTTCCCGGTAATCCGTATTTGCT (site GTTCCAGCTAG)” here?
**A.** 1.06

**Q.** With “GTTCGAACATGGACCGGTTTTCCCGGTAATCCGTATTTGCA (site GTTCGAACTTG)” as the sequence, how does the “recombinant UMI read abundance (log10)” value read?
**A.** 0.418

**Q.** With “GTTCGAACATGGACCGGTTTTCCCGGTAATCCGTATTTGCA (site GTTCGACCTTG)” as the sequence, how does the “recombinant UMI read abundance (log10)” value read?
**A.** 0

**Q.** Which “recombinant UMI read abundance (log10)” value does the source give for “GTTCGAACATGGACCGGTTTTCCCGGTAATCCGTATTTGCA (site GTTCGAGCTTG)” here?
**A.** 0.00306

**Q.** With “GTTCGAACATGGACCGGTTTTCCCGGTAATCCGTATTTGCA (site GTTCGATCTTG)” as the sequence, how does the “recombinant UMI read abundance (log10)” value read?
**A.** 0.448

**Q.** For “GTTCGACCATGGACCGGTTTTCCCGGTAATCCGTATTTGCA (site GTTCGAACTTG)”, which “recombinant UMI read abundance (log10)” value is on record?
**A.** 0

**Q.** With “GTTCGACCATGGACCGGTTTTCCCGGTAATCCGTATTTGCA (site GTTCGACCTTG)” as the sequence, how does the “recombinant UMI read abundance (log10)” value read?
**A.** 0

**Q.** With “GTTCGACCATGGACCGGTTTTCCCGGTAATCCGTATTTGCA (site GTTCGAGCTTG)” as the sequence, how does the “recombinant UMI read abundance (log10)” value read?
**A.** 0

**Q.** For “GTTCGACCATGGACCGGTTTTCCCGGTAATCCGTATTTGCA (site GTTCGATCTTG)”, which “recombinant UMI read abundance (log10)” value is on record?
**A.** 0

**Q.** For “GTTCGCGCATGGACCGGTTTTCCCGGTAATCCGTATTTGCA (site GTTCGAGCTTG)”, which “recombinant UMI read abundance (log10)” value is on record?
**A.** 0.394

**Q.** Which “recombinant UMI read abundance (log10)” value does the source give for “GTTCGCGCATGGACCGGTTTTCCCGGTAATCCGTATTTGCA (site GTTCGCGCTTG)” here?
**A.** 2.03

**Q.** For “GTTCGCGCATGGACCGGTTTTCCCGGTAATCCGTATTTGCA (site GTTCGGGCTTG)”, which “recombinant UMI read abundance (log10)” value is on record?
**A.** 0

**Q.** Which “recombinant UMI read abundance (log10)” value does the source give for “GTTCGCGCATGGACCGGTTTTCCCGGTAATCCGTATTTGCA (site GTTCGTGCTTG)” here?
**A.** 0.00559

**Q.** With “GTTCGGGCATGGACCGGTTTTCCCGGTAATCCGTATTTGCA (site GTTCGAGCTTG)” as the sequence, how does the “recombinant UMI read abundance (log10)” value read?
**A.** 1.27

**Q.** Which “recombinant UMI read abundance (log10)” value does the source give for “GTTCGGGCATGGACCGGTTTTCCCGGTAATCCGTATTTGCA (site GTTCGCGCTTG)” here?
**A.** 0

**Q.** Which “recombinant UMI read abundance (log10)” value does the source give for “GTTCGGGCATGGACCGGTTTTCCCGGTAATCCGTATTTGCA (site GTTCGGGCTTG)” here?
**A.** 2.23

**Q.** For “GTTCGGGCATGGACCGGTTTTCCCGGTAATCCGTATTTGCA (site GTTCGTGCTTG)”, which “recombinant UMI read abundance (log10)” value is on record?
**A.** 0.33

**Q.** With “GTTCGTACATGGACCGGTTTTCCCGGTAATCCGTATTTGAC (site GTTCGTACTGT)” as the sequence, how does the “recombinant UMI read abundance (log10)” value read?
**A.** 1.54

**Q.** With “GTTCGTACATGGACCGGTTTTCCCGGTAATCCGTATTTGGG (site GTTCGTACTCC)” as the sequence, how does the “recombinant UMI read abundance (log10)” value read?
**A.** 0.0129

**Q.** With “GTTCTATCATGGACCGGTTTTCCCGGTAATCCGTATTTGGT (site GTTCTATCTAC)” as the sequence, how does the “recombinant UMI read abundance (log10)” value read?
**A.** 0

**Q.** With “GTTCTTCCATGGACCGGTTTTCCCGGTAATCCGTATTTGGT (site GTTATTCCTAC)” as the sequence, how does the “recombinant UMI read abundance (log10)” value read?
**A.** 0.00339

**Q.** With “GTTCTTCCATGGACCGGTTTTCCCGGTAATCCGTATTTGGT (site GTTCTTCCTAC)” as the sequence, how does the “recombinant UMI read abundance (log10)” value read?
**A.** 0.00538

**Q.** With “GTTCTTCCATGGACCGGTTTTCCCGGTAATCCGTATTTGGT (site GTTGTTCCTAC)” as the sequence, how does the “recombinant UMI read abundance (log10)” value read?
**A.** 0.0119

**Q.** Which “recombinant UMI read abundance (log10)” value does the source give for “GTTCTTCCATGGACCGGTTTTCCCGGTAATCCGTATTTGGT (site GTTTTTCCTAC)” here?
**A.** 0

**Q.** Which “recombinant UMI read abundance (log10)” value does the source give for “GTTGAGACATGGACCGGTTTTCCCGGTAATCCGTATTTGGT (site ATTGAGACTAC)” here?
**A.** 0.953

**Q.** Which “recombinant UMI read abundance (log10)” value does the source give for “GTTGAGACATGGACCGGTTTTCCCGGTAATCCGTATTTGGT (site CTTGAGACTAC)” here?
**A.** 0.883

**Q.** With “GTTGAGACATGGACCGGTTTTCCCGGTAATCCGTATTTGGT (site GTTGAGACTAC)” as the sequence, how does the “recombinant UMI read abundance (log10)” value read?
**A.** 0.775

**Q.** For “GTTGAGACATGGACCGGTTTTCCCGGTAATCCGTATTTGGT (site TTTGAGACTAC)”, which “recombinant UMI read abundance (log10)” value is on record?
**A.** 0.683
